Results as given in US8445430B2, “Cyclic carboxamide compounds and analogues thereof as of hepatitis C virus” (Achillion Pharmaceuticals, Inc., priority 2008, dated 2013).
Read-outs that look alike come from different tables or passages of the source.

System: HCV replicon in Huh-7 cells
Test: HCV replicon assay (NPT ELISA) for inhibition of HCV replication
Assay type: cell-based
Conditions: Hepatitis C virus, Huh-7, 72 h, HCV replicon-containing Huh-7 cells, three days incubation
Experimental: Compounds claimed herein are tested for the ability to inhibit viral replication of the Hepatitis C replicon in cultured cells in which the HCV replicon construct has been incorporated. The HCV replicon system was described by Bartenschlager, et. al (Science, 285, pp. 110-113 (1999)). The replicon system is predictive of in vivo anti-HCV activity; compounds that are active in humans uniformly evidence activity in the replicon assay.
In this assay HCV replicon containing cells are treated with different concentrations of the test compound to ascertain the ability of the test compound to suppress replication of the HCV replicon. As a positive control, HCV replicon-containing cells are treated with different concentrations of interferon alpha, a known inhibitor of HCV replication. The replicon assay system includes Neomycin Phosphotransferase (NPT) as a component of the replicon itself in order to detect the transcription of replicon gene products in the host cell. Cells in which the HCV replicon is actively replicating have high levels of NPT; the level of NPT is proportional to HCV replication. […] The NPT level of each sample is measured using a captured ELISA.
A protocol for testing compounds for the ability to inhibit viral replication of the Hepatitis C replicon cultured cells in which the replicon construct has been incorporated, follows.
The HCV replicon contains, 5′-3′, the HCV-IRES, the neomycin phosphotransferase (neo) gene, the IRES of encephalomyocarditis virus, which directs translation of HCV sequences NS3 to NS5B, and the 3′-NTR. The sequence of the HCV replicon has been deposited in GenBank (Accession no. AJ242652).
The replicon is transfected into Huh-7 cells using standard methods such as electroporation.
The equipment and materials include, but are not limited to, Huh-7 HCV replicon-containing cells, maintenance media (DMEM (Dulbecco's modified Eagle media) supplemented with 10% FBS, L-glutamine, non-essential amino acids, penicillin (100 units/ml), streptomycin (100 micrograms/ml), and 500 micrograms/ml of Geneticin (G418), screening media (DMEM supplemented with 10% FBS, L-glutamine, non-essential amino acids, penicillin (100 units/ml) and streptomycin (100 micrograms/ml)), 96 well tissue culture plates (flat bottom), 96 well plates (U bottom for drug dilution), Interferon alpha for positive control, fixation reagent (such as methanol:acetone), primary antibody (rabbit anti-NPTII), secondary antibody: Eu-N11, and enhancement solution.
HCV replicon-containing cells support high levels of viral RNA replicon replication when their density is suitable. Over-confluency causes decreased viral RNA replication. Therefore, cells must be kept growing in log phase in the presence of 500 micrograms/ml of G418. Generally, cells should be passed twice a week at 1: 4-6 dilution. Cell maintenance is conducted as follows:
HCV replicon-containing cells are examined under a microscope to ensure that cells growing well. Cells are rinsed once with PBS and 2 ml trypsin is added. The cell/trypsin mixture is incubated at 37° C. in a CO2 incubator for 3-5 minutes. After incubation 10 ml of complete media is added to stop the trypsinization reaction. Cells are blown gently, put into a 15 ml tube, and spun at 1200 rpm for 4 minutes. The trypsin/medium solution is removed. Medium (5 ml) is added and the cells are mixed carefully. The cells are counted.
The cells are then seeded onto 96-well plates at a density of 6000-7500 cells/100 microliters/well (6-7.5×10^5 cells/10 ml/plate). The plates are then incubated at 37° C. in a 5% CO2 incubator.
Cells are examined under a microscope approximated 24 hours after seeding and prior to adding drugs. If counting and dilution were performed correctly, cells are 60-70% confluent and nearly all cells should attach and spread evenly in the well.
HCV replicon-containing cells are rinsed with once PBS once; 2 mls of trypsin are then added. Cells are incubated at 37° C. in a 5% CO2 incubator for 3-5 minutes. […]

SMILES | EC50 (read-out: EC50) [µM] | EC50 [µM]
CCOC(=O)[C@@]12C[C@@H]1/C=C\CCCC(=O)N[C@@H](C(C)(C)C)C(=O)N1C[C@H](Oc3cc(-c4ccccc4)nc4cc(OC)ccc34)C[C@H]1C(=O)N2 [Compound 1, (2R,6S,13aR,14aR,16aS,Z)-ethyl 6-tert-butyl-2-(7-methoxy-2-phenylquinolin-4-yloxy)-5,8,16-trioxo-1,2,3,5,6,7,8,9,10,11,13a,14,14a,15,16,16a-hexadecahydrocyclopropa[n]pyrrolo[2,1-c] [1,4,7]triazacyclopentadecine-14a-carboxylate] | > 10 | 
CCOC(=O)[C@]12C[C@H]1/C=C\CCCC(=O)N[C@@H](C(C)(C)C)C(=O)N1C[C@H](Oc3cc(-c4ccccc4)nc4cc(OC)ccc34)C[C@H]1C(=O)N2 [Compound 2, (2R,6S,13aS,14aS,16aS,Z)-ethyl 6-tert-butyl-2-(7-methoxy-2-phenylquinolin-4-yloxy)-5,8,16-trioxo-1,2,3,5,6,7,8,9,10,11,13a,14,14a,15,16,16a-hexadecahydrocyclopropa[n]pyrrolo[2,1-c] [1,4,7]triazacyclopentadecine-14a-carboxylate] | > 10 | 
CCOC(=O)C12CC1/C=C\CCCC(=O)N(CCCCCC(=O)O)[C@@H](C(C)(C)C)C(=O)N1C[C@H](Oc3cc(-c4ccccc4)nc4cc(OC)ccc34)C[C@H]1C(=O)N2 (stereo partly drawn) [Compound 3, 6-((2R,6S,16aS,Z)-6-tert-butyl-14a-(ethoxycarbonyl)-2-(7-methoxy-2-phenylquinolin-4-yloxy)-5,8,16-trioxo-2,3,5,6,8,9,10,11,13a,14,14a,15,16,16a-tetradecahydrocyclopropa[n]pyrrolo[2,1-c] [1,4,7]triazacyclopentadecin-7(1H)-yl)hexanoic acid] | > 10 | 
COc1ccc2c(O[C@@H]3C[C@H]4C(=O)NC5(C(=O)NS(=O)(=O)C6CC6)CC5/C=C\CCCC(=O)N[C@@H](C(C)(C)C)C(=O)N4C3)cc(-c3ccccc3)nc2c1 (stereo partly drawn) [Compound 4, (2R,6S,16aS,Z)-6-tert-butyl-N-(cyclopropylsulfonyl)-2-(7-methoxy-2-phenylquinolin-4-yloxy)-5,8,16-trioxo-1,2,3,5,6,7,8,9,10,11,13a,14,14a,15,16,16a-hexadecahydrocyclopropa[n]pyrrolo[2,1-c] [1,4,7]triazacyclopentadecine-14a-carboxamide] | 1 to 10 | 
COc1ccc2c(O[C@@H]3C[C@H]4C(=O)N[C@]5(C(=O)NS(=O)(=O)C6CC6)C[C@H]5/C=C\CCCC(=O)N[C@H](C(C)(C)C)C(=O)N4C3)cc(-c3ccccc3)nc2c1 [Compound 5, (2R,6R,13aS,14aR,16aS,Z)-6-tert-butyl-N-(cyclopropylsulfonyl)-2-(7-methoxy-2-phenylquinolin-4-yloxy)-5,8,16-trioxo-1,2,3,5,6,7,8,9,10,11,13a,14,14a,15,16,16a-hexadecahydrocyclopropa[n]pyrrolo[2,1-c] [1,4,7]triazacyclopentadecine-14a-carboxamide] | > 10 | 
C=CCCCC(=O)N[C@@H](C(=O)N1C[C@H](Oc2cc(-c3ccccc3)nc3cc(OC)ccc23)C[C@H]1C(=O)N[C@]1(C(=O)NS(=O)(=O)C2CC2)C[C@H]1C=C)C(C)(C)C [Compound 7, (2S,4R)-N-((1R,2S)-1-(cyclopropylsulfonylcarbamoyl)-2-vinylcyclopropyl)-1-((R)-2-hex-5-enamido-3,3-dimethylbutanoyl)-4-(7-methoxy-2-phenylquinolin-4-yloxy)pyrrolidine-2-carboxamide] | 1 to 10 | 
C=CCCCC(=O)N[C@@H](C(=O)N1C[C@H](Oc2cc(-c3ccccc3)nc3cc(OC)ccc23)C[C@H]1C(=O)N[C@@]1(C(=O)NS(=O)(=O)C2CC2)C[C@@H]1C=C)C(C)(C)C [Compound 8, (2S,4R)-N-((1S,2R)-1-(cyclopropylsulfonylcarbamoyl)-2-vinylcyclopropyl)-1-((R)-2-hex-5-enamido-3,3-dimethylbutanoyl)-4-(7-methoxy-2-phenylquinolin-4-yloxy)pyrrolidine-2-carboxamide] | 1 to 10 | 
COc1ccc2c(O[C@@H]3C[C@H]4C(=O)N[C@@]5(C(=O)NS(=O)(=O)C6CC6)C[C@@H]5/C=C\CCCC(=O)N[C@H](C(C)(C)C)C(=O)N4C3)cc(-c3ccccc3)nc2c1 [Compound 9, (2R,6R,13aR,14aS,16aS,Z)-6-tert-butyl-N-(cyclopropylsulfonyl)-2-(7-methoxy-2-phenylquinolin-4-yloxy)-5,8,16-trioxo-1,2,3,5,6,7,8,9,10,11,13a,14,14a,15,16,16a-hexadecahydrocyclopropa[n]pyrrolo[2,1-c] [1,4,7]triazacyclopentadecine-14a-carboxamide] | < 1 | 
COc1ccc2c(O[C@@H]3C[C@H]4C(=O)N[C@]5(C(=O)NS(=O)(=O)C6CC6)C[C@H]5/C=C\CCCC(=O)N(C)[C@@H](C(C)(C)C)C(=O)N4C3)cc(-c3ccccc3)nc2c1 [Compound 10, (2R,6S,13aS,14aR,16aS,Z)-6-tert-butyl-N-(cyclopropylsulfonyl)-2-(7-methoxy-2-phenylquinolin-4-yloxy)-7-methyl-5,8,16-trioxo-1,2,3,5,6,7,8,9,10,11,13a,14,14a,15,16,16a-hexadecahydrocyclopropa[n]pyrrolo[2,1-c] [1,4,7]triazacyclopentadecine-14a-carboxamide] | > 10 | 
COc1ccc2c(O[C@@H]3C[C@H]4C(=O)N[C@@]5(C(=O)NS(=O)(=O)C6CC6)C[C@@H]5/C=C\CCCC(=O)N(C)[C@@H](C(C)(C)C)C(=O)N4C3)cc(-c3ccccc3)nc2c1 [Compound 11, (2R,6S,13aR,14aS,16aS,Z)-6-tert-butyl-N-(cyclopropylsulfonyl)-2-(7-methoxy-2-phenylquinolin-4-yloxy)-7-methyl-5,8,16-trioxo-1,2,3,5,6,7,8,9,10,11,13a,14,14a,15,16,16a-hexadecahydrocyclopropa[n]pyrrolo[2,1-c] [1,4,7]triazacyclopentadecine-14a-carboxamide] | > 10 | ≤ 10
COC(=O)C[C@@H]1NC(=O)CCC/C=C\[C@@H]2C[C@@]2(C(=O)NS(=O)(=O)C2CC2)NC(=O)[C@@H]2C[C@@H](Oc3cc(-c4ccccc4)nc4cc(OC)ccc34)CN2C1=O [Compound 12, methyl 2-((2R,6S,14aR,16aS,Z)-14a-(cyclopropylsulfonylcarbamoyl)-2-(7-methoxy-2-phenylquinolin-4-yloxy)-5,8,16-trioxo-1,2,3,5,6,7,8,9,10,11,13a,14,14a,15,16,16a-hexadecahydrocyclopropa[n]pyrrolo[2,1-c] [1,4,7]triazacyclopentadecin-6-yl)acetate] | 1 to 10 | 
COC(=O)CC1NC(=O)CCC/C=C\[C@@H]2C[C@@]2(C(=O)NS(=O)(=O)C2CC2)NC(=O)[C@@H]2C[C@@H](Oc3cc(-c4ccccc4)nc4cc(OC)ccc34)CN2C1=O (stereo partly drawn) [Compound 13, methyl 2-((2R,14aR,16aS,Z)-14a-(cyclopropylsulfonylcarbamoyl)-2-(7-methoxy-2-phenylquinolin-4-yloxy)-5,8,16-trioxo-1,2,3,5,6,7,8,9,10,11,13a,14,14a,15,16,16a-hexadecahydrocyclopropa[n]pyrrolo[2,1-c] [1,4,7]triazacyclopentadecin-6-yl)acetate] | 1 to 10 | 
COc1ccc2c(O[C@@H]3C[C@H]4C(=O)NC5(C(=O)NS(=O)(=O)C6CC6)CC5/C=C\CCCC(=O)N[C@@H](CC(=O)OC(C)(C)C)C(=O)N4C3)cc(-c3ccccc3)nc2c1 (stereo partly drawn) [Compound 14, tert-butyl 2-((2R,6S,16aS,Z)-14a-(cyclopropylsulfonylcarbamoyl)-2-(7-methoxy-2-phenylquinolin-4-yloxy)-5,8,16-trioxo-1,2,3,5,6,7,8,9,10,11,13a,14,14a,15,16,16a-hexadecahydrocyclopropa[n]pyrrolo [2,1-c][1,4,7]triazacyclopentadecin-6-yl)acetate] | < 1 | 
